In paper PMC6298966, “HAI Peptide and Backbone Analogs—Validation and Enhancement of Biostability and Bioactivity of BBB Shuttles” (Scientific Reports, 2018):
Like-named read-outs stand apart in the source and are kept apart here. Residues, ends and D or L forms follow the SMILES beside them.

Columns and labels:
[1] = In vitro bovine BBB cell-based model assay; settings: BBB Papp, 200 μM, RP-HPLC; for Papp at 2 h, 200 μM: bovine
Protocol: (§2) In these models, two compartments are separated by a membrane containing a monolayer of endothelial cells which mimics either the intestinal barrier or the BBB. One compartment contains the peptide, which is incubated for 2 h. The amount of peptide in each compartment is then analyzed to determine apparent permeability (Papp, in cm/s) and transport (T, in %). The integrity of the compound in the acceptor compartment is assessed by mass spectrometry (MS).
(§3) This assay was an adapted model[10] of the method previously published by Gaillard and de Boer[52]. Briefly, TEER was measured in all transwells (TEER > 100 Ω·cm^2), before performing the assay. […] The apical compartment was filled with 200 μL of the solution containing the peptide, and 800 µL of Ringer-HEPES was poured into the basal well. Three replicates of each peptide were assayed. The plate was left for 2 h in the incubator at 37 °C. Finally, the samples were collected and analyzed or frozen until analysis. LY fluorescence was measured in a 96-well plate with a Fluoroskan Ascent Microplate Fluorometer (Thermo Fisher Scientific).
(§4) In vitro Transport of AuNPs in using a Bovine BBB Cell-Based Model Assay. To assess the
(§5) capacity of HAI to cross the BBB, this peptide was conjugated to AuNPs and then assay ed in an in
vitro BBB cell-based model.

[2] = tested on: in vitro bovine BBB model; experiment: In vitro bovine BBB cell-based model assay; settings: for BBB T (%): 200 μM, RP-HPLC
Protocol: as §2, §3, §4, §5
vitro BBB cell-based model.

[3] = Peptide stability in human serum; assay type: in vitro ADME; settings: male, human serum diluted with HBSS, 24 h, RP-HPLC; for half-life: human serum
Protocol: Nevertheless, peptides formed by L-amino acids have a short in vivo half-life in serum, which can reduce their potential bioactivity. The sensitivity of this peptide to proteases was tested at a concentration of 150 μM in HBSS/human serum 90:10 (v/v) for 24 h. At several time points, an aliquot was extracted, precipitated serum proteins with MeOH and then analyzed by RP-HPLC.
Peptides were dissolved in 1 mL of HBSS buffer/human serum (from human male AB plasma; Sigma-Aldrich) 10:90 (v/v) at a final concentration of 200 µM and incubated at 37 °C for 24 h. Aliquots of 50 µL were extracted at a range of incubation times and treated with 200 µL of cold CH3OH (4 °C) to precipitate serum proteins. After 30 min, samples were centrifuged at 13,000 g and 4 °C for 30 min. Supernatants were analyzed by RP-HPLC-PDA and MALDI-TOF MS, using similar procedures as for the quantification of the in vitro cell-based BBB model.

rat astrocytes [4] = experiment: Internalization of Cf-labeled peptides by rat astrocytes (CLSM, flow cytometry); assay type: cell-based; settings: for Internalization with respect to the parent version (HAI): 50 μM; for Internalization with respect to the parent version (HAI) / Internalization profile among candidates: 3 h, 37 °C; for Internalization profile among candidates: Cf-labeled peptides 50 μM (R8 15 μM)
Caco-2 cells [5] = experiment: Caco-2 intestinal barrier model assay; settings: for Caco-2 transport: Table 2; for Caco-2 transport / Caco-2 T (%): 2 h at 37 °C, HBSS, 50 μM, RP-HPLC; for Detection by MALDI-TOF MS in acceptor wells: Caco-2 assay, after 2 h; for Caco-2 T (%): Table 1
Protocol: (§6) In a subsequent step we evaluated the transport capacity of these peptides using two in vitro barrier models, namely in an intestine (Caco-2 assay)[41] and a BBB model[39],[40] […] In these models, two compartments are separated by a membrane containing a monolayer of endothelial cells which mimics either the intestinal barrier or the BBB. One compartment contains the peptide, which is incubated for 2 h. The amount of peptide in each compartment is then analyzed to determine apparent permeability (Papp, in cm/s) and transport (T, in %). The integrity of the compound in the acceptor compartment is assessed by mass spectrometry (MS).
(§7) The ability of peptides to overcome the intestinal barrier was tested using Caco-2 cells. […] Briefly, experiments were done with cells (passage between 60 and 80) seeded on 4.67 cm^2 filters at a density of 5.25·10^4 cell/cm^2. Peptides dissolved in HBSS were incubated for 2 h at a 50 μM concentration with cell layers at 37 °C and 5% CO2. After the experiment, the content of each compartment was directly analyzed by HPLC and then transport (in %) and Papp were determined.

[6] = tested on: bovine brain endothelial cells (BBECs); experiment: Internalization of Cf-labeled peptides by BBECs (CLSM, flow cytometry); assay type: cell-based; settings: for Internalization with respect to the parent version (HAI): 50 μM; for Internalization with respect to the parent version (HAI) / Internalization profile among candidates: 3 h, 37 °C; for Internalization profile among candidates: Cf-labeled peptides 50 μM (R8 15 μM)
[7] = Caco-2 intestinal barrier model assay; settings: human, Caco-2
Protocol: as §6, §7

[8] = tested on: bovine brain endothelial cells (BBECs); experiment: MTT toxicity assay in BBECs; assay type: cell-based; settings: 50 μM, 24 h
Protocol: (§1) The assay was performed in 96-well plates, adding 3,150 cells to each well in 100 μL (immortalized cell line –i.e. BBECs) or 7,000 cells in 100 μL (primary cultures –i.e. rat astrocytes), seeded 24 h before performing the experiment. Cells were incubated with each peptide at a range of concentrations (20, 50 and 500 μM) in cellular medium for 24 h at 37 °C and 5% CO2. After 22 h, MTT (3-(4,5-dimethylthiazol-2-yl)−2,5-diphenyltetrazolium bromide) was added to a final concentration of 0.5 mg/mL. The cells with peptides and MTT were incubated for further 2 h. The medium was then discarded and 200 μL of 2-propanol was added to each well to dissolve the purple formazan, product of the conversion of MTT by the mitochondrial enzyme […]. The plate was kept in an orbital shaker for 30 min (15 rpm) to ensure the complete dissolution of formazan. Finally, absorbance was measured at 570 nm and cell viability percentages were calculated dividing the absorbance value of cells treated with a given peptide by the absorbance value of untreated cells. Experiments for each peptide were carried out by triplicate. Cells incubated with 1% SDS were used as control of 0% viability (value subtracted to all samples before viability calculus per each peptide).

rat astrocytes [9] = experiment: MTT toxicity assay in rat astrocytes; assay type: cell-based; settings: 50 μM, 24 h
Protocol: as §1

Caco-2 cells [10] = tested on: Caco-2 cells
Protocol: as §6, §7

in vitro = settings: bovine
Protocol: as §2, §3, §4, §5
vitro BBB cell-based model.

[11] = tested on: in vitro bovine BBB model
Protocol: as §2, §3, §4, §5
vitro BBB cell-based model.

in vitro human BBB model = experiment: In vitro human BBB cell-based model assay; assay type: in vitro ADME; settings: 50, 250 and 1250 μM
Protocol: The discrepancy between internalization and transport of (NMe)HAI is probably due to an increase in lipophilicity after methylation of the backbone, thereby enhancing internalization by passive diffusion but not favoring the transcytosis. To ensure that rD-HAI crosses the BBB through active transport, we proceeded to test its mechanism of transport using a human model of the BBB.
This assay was performed using the model published by Cecchelli and co-workers[53]. Endothelial cells and pericytes were defrosted in gelatin-coated Petri dishes (Corning). Pericytes and endothelial cells were cultured in DMEM pH 6.8 or in supplemented endothelial cell growth medium (Sciencells), respectively. After 48 h, pericytes (50,000 cells/well) and endothelial cells (80,000 cells/well) were seeded in gelatin-coated 12-well plates or in Matrigel-coated 12-well Transwell inserts (Corning), respectively. Medium was changed every 2–3 days and assays were performed 7–8 days after seeding. […] […] Then, 500 µL of the compound and 1,500 µL of Ringer-HEPES alone were introduced in the apical or in the basolateral compartments, respectively. The plates were set on at 37 °C for 2 h. The solutions from both compartments were then recovered and quantified by HPLC and identified by MALDI-TOF.

CC[C@H](C)[C@@H](C(=O)N(C)[C@@H](Cc1ccc(O)cc1)C(=O)N1CCC[C@H]1C(=O)N[C@@H](CCCNC(=N)N)C(=O)N(C)[C@@H](Cc1c[nH]cn1)C(N)=O)N(C)C(=O)[C@H](C)NC(=O)[C@@H](N)Cc1c[nH]cn1 [(NMe)HAI, H-HA(NMe)I(NMe)YPR(NMe)H-NH2]
Papp at 2 h, 200 μM ([1]; Table 2, 2 h at 37 °C): 11.7 ± 1.3 ×10⁻⁶ cm/s | BBB T (%) ([2]; Table 2, 2 h at 37 °C): 13.9 ± 1.6% | half-life [3]: > 24 h | Internalization with respect to the parent version (HAI) (rat astrocytes [4]): two-fold increase in internalization | Caco-2 transport (Caco-2 cells [5]): 0.200 ± 0.003 | Internalization with respect to the parent version (HAI) [6]: two-fold increase in internalization

CC[C@H](C)[C@H](NC(=O)[C@H](C)NC(=O)[C@@H](N)Cc1c[nH]cn1)C(=O)N[C@@H](Cc1ccc(O)cc1)C(=O)N1CCC[C@H]1C(=O)N[C@@H](CCCNC(=N)N)C(=O)N[C@@H](Cc1c[nH]cn1)C(N)=O [HAI, H-HAIYPRH-NH2]
Papp at 2 h, 200 μM ([1]; Table 1, 2 h at 37 °C): 18 ± 2 ×10⁻⁶ cm/s | Papp at 2 h, 200 μM ([1]; Table 2, 2 h at 37 °C): 9 ± 5 ×10⁻⁶ cm/s | BBB T (%) ([2]; Table 1, 2 h at 37 °C): 16 ± 3% | BBB T (%) ([2]; Table 2, 2 h at 37 °C): 10 ± 3% | half-life at 150 μM ([3]; 150 μM in HBSS/human serum 90:10 (v/v)): ~5 min | Internalization in presence of transferrin (Tf) (rat astrocytes [4]; Cf-HAI 50 μM, flow cytometry): promoted by the addition of Tf | Papp at 2 h, 50 μM [7]: 0.0002 ± 8e-05 ×10⁻⁶ cm/s | Detection by MALDI-TOF MS in acceptor wells (Caco-2 cells [5]): detected | Caco-2 T (%) (Caco-2 cells [5]): 0.7 ± 0.3% | Caco-2 transport (Caco-2 cells [5]): 0.7 ± 0.3 | Internalization in presence of transferrin (Tf) ([6]; Cf-HAI 50 μM, flow cytometry): promoted by the addition of Tf | Internalization at increasing concentrations of peptide ([6]; range of concentrations of Cf-HAI): saturation of internalization | Toxicity (MTT assay) [8]: not toxic | Toxicity (MTT assay) (rat astrocytes [9]): not toxic

N=C(N)NCCC[C@H](NC(=O)[C@H](CCCNC(=N)N)NC(=O)[C@H](CCCNC(=N)N)NC(=O)[C@H](CCCNC(=N)N)NC(=O)[C@H](CCCNC(=N)N)NC(=O)[C@H](CCCNC(=N)N)NC(=O)[C@H](CCCNC(=N)N)NC(=O)[C@@H](N)CCCNC(=N)N)C(=O)O [Peptide R8]
Papp ([1]; Table 1, 2 h at 37 °C): 0.6 ± 0.06 ×10⁻⁶ cm/s | BBB T (%) ([2]; Table 1, 2 h at 37 °C): 0.68 ± 0.07% | Internalization profile among candidates (rat astrocytes [4]): highest internalization profiles | Detection by MALDI-TOF MS in acceptor wells (Caco-2 cells [5]): detected | Caco-2 T (%) (Caco-2 cells [5]): 0% | Internalization profile among candidates [6]: highest internalization profiles

CC[C@H](C)[C@H](NC(=O)[C@H](CC(=O)O)NC(=O)[C@H](CS)NC(=O)[C@@H]1CCCN1C(=O)[C@@H](NC(=O)CNC(=O)[C@@H]1CCCN1C(=O)[C@H](CCCNC(=N)N)NC(=O)[C@@H]1CCCN1C(=O)[C@H](CC(N)=O)NC(=O)[C@H](CCC(=O)O)NC(=O)[C@@H]1CCCN1C(=O)[C@H](CCSC)NC(=O)[C@H](Cc1c[nH]c2ccccc12)NC(=O)[C@@H](NC(=O)[C@@H](NC(=O)[C@@H](N)Cc1ccc(O)cc1)[C@@H](C)O)[C@@H](C)CC)[C@@H](C)O)C(=O)N[C@@H](Cc1ccccc1)C(=O)N[C@H](C(=O)N[C@@H](CC(N)=O)C(=O)N[C@@H](CO)C(=O)N[C@@H](CCCNC(=N)N)C(=O)NCC(=O)N[C@@H](CCCCN)C(=O)N[C@@H](CCCNC(=N)N)C(=O)N[C@@H](C)C(=O)N[C@@H](CO)C(=O)N[C@@H](CC(N)=O)C(=O)NCC(=O)O)[C@@H](C)O [RVG]
Caco-2 Papp (Caco-2 cells [10]): 0 ×10⁻⁶ cm/s | Caco-2 T (%) (Caco-2 cells [10]): 0% | Papp (in vitro): 0.28 ± 0.02 ×10⁻⁶ cm/s | BBB T (%) [11]: 0.29 ± 0.03%

CC(C)C[C@H](NC(=O)[C@@H](N)C(C)C)C(=O)N[C@@H](CCCNC(=N)N)C(=O)N1CCC[C@H]1C(=O)N1CCC[C@H]1C(=O)N1CCC[C@H]1C(=O)N[C@H](C(=O)N[C@@H](CC(C)C)C(=O)N[C@@H](CCCNC(=N)N)C(=O)N1CCC[C@H]1C(=O)N1CCC[C@H]1C(=O)N1CCC[C@H]1C(=O)N[C@H](C(=O)N[C@@H](CC(C)C)C(=O)N[C@@H](CCCNC(=N)N)C(=O)N1CCC[C@H]1C(=O)N1CCC[C@H]1C(=O)N1CCC[C@H]1C(=O)O)C(C)C)C(C)C [SAP, H-(VLRPPP)3-OH] (H-VLRPPPVLRPPPVLRPPP-OH)
Papp at 2 h, 200 μM ([1]; Table 1, 2 h at 37 °C): 5.5 ± 1.5 ×10⁻⁶ cm/s | BBB T (%) ([2]; Table 1, 2 h at 37 °C): 5 ± 3% | Caco-2 T (%) (Caco-2 cells [5]): 0%

CC[C@@H](C)[C@@H](NC(=O)[C@@H](Cc1ccc(O)cc1)NC(=O)[C@H]1CCCN1C(=O)[C@@H](CCCNC(=N)N)NC(=O)[C@H](N)Cc1c[nH]cn1)C(=O)N[C@H](C)C(=O)N[C@H](Cc1c[nH]cn1)C(N)=O [rD-HAI, H-hrpyiah-NH2]
Papp at 2 h, 200 μM ([1]; Table 2, 2 h at 37 °C): 14 ± 2 ×10⁻⁶ cm/s | BBB T (%) ([2]; Table 2, 2 h at 37 °C): 17 ± 3% | BBB transport rate relative to the parent version ([2]; vs HAI): around 1.5 times | half-life [3]: > 24 h | Internalization with respect to the parent version (HAI) (rat astrocytes [4]): maintained the internalization rate | Papp at 2 h, 50 μM [7]: 0.00012 ± 0.0001 ×10⁻⁶ cm/s | Caco-2 transport (Caco-2 cells [5]): 0.4 ± 0.3 | Internalization with respect to the parent version (HAI) [6]: maintained the internalization rate | Transport at increasing concentrations (in vitro human BBB model): saturation of transport

Penetratin
Internalization profile among candidates (rat astrocytes [4]): highest internalization profiles | Internalization profile among candidates [6]: highest internalization profiles

TAT: HIV TAT 48–57 peptide, derived from the transcriptional trans-activator protein of HIV-1; cell-penetrating peptide (GRKKRRQRRR; UniProt P04608 48-57, looked up, fragment)
BBB T (%) ([2]; Table 1, 2 h at 37 °C): 0% | Detection by MALDI-TOF MS in acceptor wells ([2]; after 2 h): not detected | Internalization profile among candidates (rat astrocytes [4]): highest internalization profiles | Caco-2 T (%) (Caco-2 cells [5]): 0% | Internalization profile among candidates [6]: highest internalization profiles
